{"source": "paper PMC2693121", "about": "(Molecular cell, 2009)", "key": {"Cdk9": {"molecular_target": "Cdk9 (Schizosaccharomyces pombe, UniProt Q96WV9, T120G)", "sequence (O74880 whole entry)": "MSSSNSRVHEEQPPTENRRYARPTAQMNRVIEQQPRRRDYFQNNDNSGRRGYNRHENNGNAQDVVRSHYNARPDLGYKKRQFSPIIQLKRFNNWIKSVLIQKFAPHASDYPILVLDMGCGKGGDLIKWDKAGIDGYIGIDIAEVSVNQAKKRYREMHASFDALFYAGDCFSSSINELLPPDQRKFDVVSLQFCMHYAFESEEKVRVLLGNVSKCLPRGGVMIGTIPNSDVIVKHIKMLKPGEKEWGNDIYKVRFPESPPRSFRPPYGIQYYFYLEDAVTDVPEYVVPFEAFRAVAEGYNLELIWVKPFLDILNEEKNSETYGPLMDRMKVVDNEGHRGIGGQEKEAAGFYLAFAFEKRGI", "sequence (O74627 whole entry, further chain)": "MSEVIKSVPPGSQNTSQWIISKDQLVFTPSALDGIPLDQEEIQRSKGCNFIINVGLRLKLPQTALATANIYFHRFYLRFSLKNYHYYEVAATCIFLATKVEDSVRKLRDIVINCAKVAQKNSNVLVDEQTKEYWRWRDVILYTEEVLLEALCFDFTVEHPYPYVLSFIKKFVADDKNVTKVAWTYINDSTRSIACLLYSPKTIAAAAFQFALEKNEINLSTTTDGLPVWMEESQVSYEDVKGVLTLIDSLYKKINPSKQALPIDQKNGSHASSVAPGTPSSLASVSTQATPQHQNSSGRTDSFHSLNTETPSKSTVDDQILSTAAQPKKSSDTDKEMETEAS", "sequence (Q96WV9 whole entry, stated change not applied)": "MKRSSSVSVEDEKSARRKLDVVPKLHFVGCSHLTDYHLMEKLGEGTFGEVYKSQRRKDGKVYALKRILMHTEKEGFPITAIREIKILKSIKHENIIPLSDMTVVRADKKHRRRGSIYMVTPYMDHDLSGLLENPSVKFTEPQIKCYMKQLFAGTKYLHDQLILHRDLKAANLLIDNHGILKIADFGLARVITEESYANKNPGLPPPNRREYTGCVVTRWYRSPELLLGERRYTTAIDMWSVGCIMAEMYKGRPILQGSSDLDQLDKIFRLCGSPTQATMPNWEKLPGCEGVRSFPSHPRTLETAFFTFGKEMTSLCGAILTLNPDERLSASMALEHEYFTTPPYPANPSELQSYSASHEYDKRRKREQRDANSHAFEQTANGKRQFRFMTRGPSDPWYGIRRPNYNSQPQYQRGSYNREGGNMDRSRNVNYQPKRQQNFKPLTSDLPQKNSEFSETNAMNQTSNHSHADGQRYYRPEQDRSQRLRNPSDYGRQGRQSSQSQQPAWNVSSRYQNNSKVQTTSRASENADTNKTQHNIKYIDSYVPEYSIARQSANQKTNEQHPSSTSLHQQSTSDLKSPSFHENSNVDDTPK", "assay": "radiometric kinase assay with [γ-32P]-ATP on GST-Spt5", "type": "biochemical"}, "Mcs6": {"molecular_target": "Mcs6 (Schizosaccharomyces pombe, UniProt Q12126, L87G)", "sequence (P36613 whole entry)": "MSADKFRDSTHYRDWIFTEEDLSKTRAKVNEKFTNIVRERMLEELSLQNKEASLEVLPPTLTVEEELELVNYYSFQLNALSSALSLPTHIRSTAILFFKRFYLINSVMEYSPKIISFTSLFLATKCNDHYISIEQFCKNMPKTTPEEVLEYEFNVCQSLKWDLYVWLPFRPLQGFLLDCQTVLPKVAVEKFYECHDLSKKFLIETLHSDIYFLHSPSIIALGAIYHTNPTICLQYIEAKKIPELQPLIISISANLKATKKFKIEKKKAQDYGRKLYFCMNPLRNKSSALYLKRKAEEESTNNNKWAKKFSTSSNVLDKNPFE", "sequence (Q12126 whole entry, stated change not applied)": "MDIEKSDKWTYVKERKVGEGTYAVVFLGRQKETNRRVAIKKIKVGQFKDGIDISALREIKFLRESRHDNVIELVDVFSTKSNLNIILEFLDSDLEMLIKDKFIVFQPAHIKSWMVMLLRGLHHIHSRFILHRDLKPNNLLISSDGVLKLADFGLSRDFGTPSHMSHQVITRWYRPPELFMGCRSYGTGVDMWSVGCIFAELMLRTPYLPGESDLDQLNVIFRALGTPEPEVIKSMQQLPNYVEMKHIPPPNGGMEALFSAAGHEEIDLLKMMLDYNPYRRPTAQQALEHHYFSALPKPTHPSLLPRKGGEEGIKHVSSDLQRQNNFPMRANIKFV", "sequence (O94684 whole entry, further chain)": "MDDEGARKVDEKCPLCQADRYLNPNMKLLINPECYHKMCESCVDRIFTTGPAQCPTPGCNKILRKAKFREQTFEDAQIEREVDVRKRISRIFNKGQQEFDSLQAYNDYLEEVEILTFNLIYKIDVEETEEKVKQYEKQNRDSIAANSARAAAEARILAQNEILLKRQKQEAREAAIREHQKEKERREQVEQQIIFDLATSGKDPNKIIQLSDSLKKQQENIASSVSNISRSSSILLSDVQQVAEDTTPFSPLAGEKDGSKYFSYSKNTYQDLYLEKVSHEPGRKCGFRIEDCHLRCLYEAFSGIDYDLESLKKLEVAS", "assay": "radiometric kinase assay with [γ-32P]-ATP on GST-Rpb1-CTD", "type": "biochemical"}}, "data": [{"smiles": "CC(C)(C)n1nc(Cc2cccc3ccccc23)c2c(N)ncnc21", "note": "[1-NM-PP1]", "values": [{"measurement": "IC50", "setting": "Cdk9", "value": "~500", "unit": "nM"}]}, {"smiles": "Cc1cccc(Cc2nn(C(C)(C)C)c3ncnc(N)c23)c1", "note": "[3-MB-PP1]", "values": [{"measurement": "IC50", "setting": "Mcs6", "value": "~125", "unit": "nM"}, {"measurement": "IC50", "setting": "Cdk9", "value": "~25", "unit": "nM"}]}]}
